Assays:
[1] = tested on: mononuclear cells from "normal"/sickle cell patients (controls); experiment: cell surface phenotyping by flow cytometry, control cells; format: cell-based, human; conditions: compared to media only, days 1-4
Protocol: (§1) Subject to parental/patient consent, approximately 15 ml of blood was obtained from leukemic patients in remission, long-term survivors of acute lymphoblastic leukemia and normal volunteers. Additional “normal” control samples were collected from the first drawing of blood in sickle cell patients undergoing manual partial exchange transfusion, or samples of blood discarded by the blood bank from normal donors. Patient blood was placed into heparin (1000 USP u/ml). Peripheral blood mononuclear cells (PBMC) were isolated by density gradient centrifugation (400×g, 40 minutes, and 18° C.) with Ficoll Paque Plus (GE Healthcare, Amersham Biosciences; Uppsala, Sweden), followed by washing with phosphate-buffered saline. Plasma was also collected simultaneously and stored at −80° C. until use. […]
(§2) Frozen specimens were thawed in a 37° C. water bath with continuous agitation. […] These cells (frozen/thawed PBMC) were then assessed for viability by trypan blue dye exclusion, counted, and re-suspended in the medium for assay. […]
(§3) At time intervals of 24, 48, 72 and 96 hrs, cell surface phenotyping was performed by flow cytometry. […] Acquisition and Analysis was carried out on fluorescence activated cell sorting (FACS) BD FACS Canto II using FACSDiva v 6.1.2. […] Percentage of cells positive for CD10CD19, CD34CD19 and CD34CD117 were recorded.

[2] = tested on: mononuclear leukocytes of long-term survivors of acute lymphoblastic leukemia (ALL); experiment: cell surface phenotyping by flow cytometry, cells of ALL patients; format: cell-based, human; conditions: cells of leukemic patients in remission/long-term ALL survivors; compared to media only; days 1-4
Protocol: as §1, §2, §3

Aflotoxin B1 [aflotoxin (AT)]
development of cell surface phenotypes characteristic of ALL (CD10/CD19, CD34/CD19, CD34/CD117) [1]: indiscriminately induced increased development
development of cell surface phenotypes characteristic of ALL (CD10/CD19, CD34/CD19, CD34/CD117) [2]: indiscriminately induced increased development
